{"source": "paper PMC10870435", "about": "“A novel complement C3 inhibitor CP40-KK protects against experimental pulmonary arterial hypertension via an inflammasome NLRP3 associated pathway” (Journal of Translational Medicine, 2024)", "key": {"[1]": {"test_system": "rat complement C3 function", "assay": "CH50 test (Mayer method) in vitro, peptide added to rat plasma", "format": "biochemical", "settings": "0, 2.5, 5.0, 10, 20, 40 µM added to mixed wild-type SD rat plasma; sensitized sheep erythrocytes", "experimental": "The total functional complement was determined with a CH50 assay based on the modified method of Mayer. The 50% haemolytic standard tube was made by adding 0.3 ml 2% sheep erythrocytes (Chundubio, Wuhan, China) to 1.2 ml distilled water and then diluting with equivoluminal veronal buffer saline (Leagene, Beijing, China). The sheep erythrocytes were sensitized by adding a designated volume of a predetermined concentration of rabbit haemolytic serum (Solarbio, Beijing, China) in veronal buffer saline. The plasma of rats was first prediluted in veronal buffer saline at 1/5, 1/10, and 1/20. […] The OD values of supernatant liquid in the ten tubes were measured at 541 nm and compared with that of the 50% haemolytic standard tube to get the most similar value. The total haemolytic complement (CH50) = dilution ratio / the quantity of plasma needed to induce 50% lysis of sheep erythrocytes.\nPlasma samples for biological assays from rats were centrifuged and stored at -80°C until used, and the total functional complement was determined with a CH50 assay based on the modified method of Mayer. This assay involves determining the quantity of plasma needed to induce 50% lysis of sheep erythrocytes sensitized with antibody anti-sheep erythrocytes. […] The total hemolytic complement (CH50) = dilution ratio / the quantity of plasma needed to induce 50% lysis of sheep erythrocytes^5-7."}, "[2]": {"test_system": "rat complement C3 function", "assay": "CH50 test ex vivo, plasma of PAH experiment groups", "format": "in vivo", "settings": "2 mg/kg s.c. day 15 to day 28", "experimental": "In the current study, two animal experiments were conducted successively. 30 rats were randomly divided into two groups (control group and MCT group, n = 15 per group) in the first experiment. MCT group rats received a single intraperitoneally injection of MCT (40 mg/kg) on day 1 to induce PAH while control group rats received an equivoluminal saline injection intraperitoneally. For the second animal experiment, the rats were assigned into four groups (control group, MCT group, CP40-KK group, and MCT + CP40-KK group, n = 15 per group). […]\nThe total functional complement was determined with a CH50 assay based on the modified method of Mayer. […] The OD values of supernatant liquid in the ten tubes were measured at 541 nm and compared with that of the 50% haemolytic standard tube to get the most similar value. The total haemolytic complement (CH50) = dilution ratio / the quantity of plasma needed to induce 50% lysis of sheep erythrocytes.\nPlasma samples for biological assays from rats were centrifuged and stored at -80°C until used, and the total functional complement was determined with a CH50 assay based on the modified method of Mayer. This assay involves determining the quantity of plasma needed to induce 50% lysis of sheep erythrocytes sensitized with antibody anti-sheep erythrocytes. […]"}, "Tail bleeding time": {"assay": "Tail bleeding time", "format": "in vivo, rat", "settings": "rats, after 2 weeks of treatment"}, "[3]": {"test_system": "MCT-induced rat PAH model", "assay": "MCT-induced rat PAH model: hemodynamics, RV hypertrophy, vessel morphology", "format": "in vivo", "experimental": "(§1) In the current study, two animal experiments were conducted successively. 30 rats were randomly divided into two groups (control group and MCT group, n = 15 per group) in the first experiment. MCT group rats received a single intraperitoneally injection of MCT (40 mg/kg) on day 1 to induce PAH while control group rats received an equivoluminal saline injection intraperitoneally. For the second animal experiment, the rats were assigned into four groups (control group, MCT group, CP40-KK group, and MCT + CP40-KK group, n = 15 per group). The control group was given the same volume of saline subcutaneously while the CP40-KK group rats only received CP40-KK (2 mg/kg) by subcutaneous injection from day 15 to day 28 continuously. The rats in the MCT group and MCT + CP40-KK group were received a single intraperitoneally injection of MCT (40 mg/kg) on day 1 and subcutaneously injected with either an equal volume of saline or CP40-KK (2 mg/kg) at day 15 to day 28 continuously. The dose selection of MCT and CP40-KK in our study was established based on previous studies.\nFour weeks after the MCT injection, the experimental rats were weighed and anesthetized by intraperitoneal injecting pentobarbital sodium (40 mg/kg). After being anesthetized, rats were fixed in the supine position. A 3F polyethylene catheter filling with heparin was introduced into the right ventricle (RV) through the right jugular vein and the right atrium. Right ventricle systolic pressure (RVSP) was assessed by a pressure transducer and PowerLab system (AD Instruments, Australia). Pressure recordings were measured over a 2 min period and analyzed with Powerlab Pro Software (AD Instruments, Australia). After the hemodynamic study, the rats were euthanized by an overdose of anesthesia, and their lungs and hearts were dissected for further evaluation. The dry weights of the RV and left ventricle (LV) + septum were measured to calculate the RV/(LV + S) ratio and the RV / body weight (RV/BW). The left lung was fixed in 4% paraformaldehyde, and the right lung was snap-frozen in liquid nitrogen and stored at − 80 °C for further analysis.\nFixed lung samples were further fixed in 4% buffered paraformaldehyde for 24 h, embedded in paraffin, and processed for sectioning at 5 μm thick. Hematoxylin and eosin (H&E) staining were performed on paraffin-fixed lung tissue slides. The percent medial wall thickness (WT%) and percent medial wall area (WA%) were used to assess the extent of pulmonary vascular remodeling. WT% = (external diameter − internal diameter)/(external diameter) × 100%; WA% = (external area − internal area)/external area × 100%. All data were obtained and analyzed in a blinded manner."}, "C3 activation (C3a)": {"test_system": "C3 activation (C3a)", "assay": "Plasma C3a western blot in PAH rats", "format": "in vivo", "settings": "western blot of rat plasma; n = 6 per group", "experimental": "as §1, with “The rats in the MCT group and MCT + CP40-KK group were received a single intraperitoneally injection of MCT (40 mg/kg) on day 1 and subcutaneously injected with either an equal volume of saline or CP40-KK (2 mg/kg) at day 15 to day 28 continuously. The dose selection of MCT and CP40-KK in our study was established based on previous studies.” left out\n[…] Protein concentration was quantified using a BCA reagent. […] To compare and quantify levels of proteins, the density of each band was measured using Image J software. Equal loading for total cell or tissue lysates was determined by β-Actin western blot.\n[…] Protein concentration was quantified using a BCA reagent. […] To compare and quantify levels of proteins, the density of each band was measured using Image J software. Equal loading for total cell or tissue lysates was determined by β-Actin western blot^3,4."}, "C3b": {"test_system": "C3b", "settings": "cited from earlier work"}, "[4]": {"settings": "MCT 40 mg/kg i.p. day 1, 2 mg/kg/day s.c. day 15-28, vs MCT group, n = 6 per group"}}, "note": "Bridge positions count the residues as written; N and C are the ends. Square brackets hold non-standard residues; d marks the D form. Peptide text beside a SMILES is read from it. Trp(1-Me) = Cn1cc(C[C@H](N)C(=O)O)c2ccccc21; NMeI = CC[C@H](C)[C@H](NC)C(=O)O; Sar = CNCC(=O)O", "data": [{"smiles": "CC[C@H](C)[C@H](NC(=O)[C@H](N)Cc1ccc(O)cc1)C(=O)N[C@H]1CSSC[C@@H](C(=O)N(C)[C@H](C(=O)N[C@@H](CCCCN)C(=O)N[C@@H](CCCCN)C(N)=O)[C@@H](C)CC)NC(=O)[C@H](CCCNC(=N)N)NC(=O)[C@H](Cc2c[nH]cn2)NC(=O)CN(C)C(=O)[C@H](Cc2c[nH]c3ccccc23)NC(=O)[C@H](CC(=O)O)NC(=O)[C@H](CCC(N)=O)NC(=O)[C@H](Cc2cn(C)c3ccccc23)NC(=O)[C@H](C(C)C)NC1=O", "note": "[CP40-KK] (H-[dY]ICV[Trp(1-Me)]QDW[Sar]HRC[NMeI]KK-NH2; disulfide 3-12 (inferred))", "values": [{"measurement": "CH50 value (rat C3 function) in vitro", "setting": "[1]", "result": "blocked rat C3 function in a dosage-dependent manner"}, {"measurement": "CH50 value ex vivo, MCT + CP40-KK vs MCT group", "setting": "[2]", "result": "could reverse it"}, {"measurement": "tail bleeding time", "setting": "Tail bleeding time", "result": "significantly prolong"}, {"measurement": "RV / (LV + S) ratio", "setting": "[3]; [4]", "result": "significantly ameliorate"}, {"measurement": "RV / BW ratio", "setting": "[3]; [4]", "result": "significantly ameliorate"}, {"measurement": "RVSP", "setting": "[3]; [4]", "result": "significantly ameliorate"}, {"measurement": "pulmonary wall thickness index WA%", "setting": "[3]; [4]", "result": "significantly ameliorate"}, {"measurement": "pulmonary wall thickness index WT%", "setting": "[3]; [4]", "result": "significantly ameliorate"}, {"measurement": "PAH-related indices, CP40-KK only group vs saline only group", "setting": "[3]; rats without MCT, 2 mg/kg s.c. day 15-28", "result": "no significant effect"}, {"measurement": "plasma C3a (C3 activation ex vivo)", "setting": "C3 activation (C3a)", "result": "significantly inhibit the C3 activation"}, {"measurement": "binding affinity for C3b relative to CP40", "setting": "C3b", "result": "increase the binding affinity for C3b"}]}]}
